Patent US9849113B2, “Methods of treating α adrenergic mediated conditions” (Allergan, Inc., priority 2008, dated 2017)

Key:
[1] = system: Chung model rats; assay: Chung model of chronic pain (spinal nerve ligation), tactile allodynia by von Frey hairs; format: in vivo, rat; conditions: single oral dose, FIG. 1
Experimental: Various concentrations of N-(2,3-dichlorobenzyl)-4,5-dihydro-1H-imidazol-2-amine were administered orally to Chung model rats. A model in accordance with Kim and Chung 1992, Pain […], pp 355-363 (Chung model), for chronic pain (in particular peripheral neuropathy) involves the surgical ligation of the L5 (and optionally the L6) spinal nerves on one side in experimental animals. Rats recovering from the surgery gain weight and display a level of general activity similar to that of normal rats. However, these rats develop abnormalities of the foot, wherein the hindpaw is moderately everted and the toes are held together. More importantly, the hindpaw on the side affected by the surgery appears to become sensitive to pain from low-threshold mechanical stimuli, such as that producing a faint sensation of touch in a human, within about 1 week following surgery. […]
Tactile allodynia is measured prior to and 30 minutes after drug administration using von Frey hairs that are a series of fine hairs with incremental differences in stiffness. […] The applied force has been calculated to range from 0.41 to 15.1 grams. […] The 50% paw withdrawal threshold is determined using the method of Dixon, W. J., Ann. […] The post-drug threshold is compared to the pre-drug threshold and the percent reversal of tactile sensitivity is calculated based on a normal threshold of 15.1 grams.

[2] = system: male ddC treated rats; assay: Dideoxycytidine (ddC) model of neuropathic pain, allodynia by von Frey hairs; format: in vivo, rat; conditions: for % Allodynia Reversal: 15 min post dose / % Allodynia Reversal: 30 min post dose / % Allodynia Reversal: 60 min post dose / % Allodynia Reversal: 120 min post dose: mean ± SEM
Experimental: The ddC Model in the rat is a relatively new model of neuropathic pain discovered from clinical treatment of the AIDS virus. […] The experimental animal model in the rat for neuropathic pain by ddC injection manifests symptoms of human patients with causalgia. It is considered predictive of clinical activity against neuropathic pain (Joseph et al, 2004). Compound N-(2,3-dichlorobenzyl)-4,5-dihydro-1H-imidazol-2-amine was tested in this ddC model of allodynic pain. The compound was administered intraperitoneally to male ddC treated rats.
The animals are injected intraperitoneally (IP) with 25 mg/kg dideoxycytidine (ddC) using a sterile 30 gauge needle. Approximately 3 weeks after the ddC injection a painful neuropathy develops causing sensitivity to light touch on the animals' extremities. This neuropathy can last for 2-3 months. The animals show no spontaneous pain, only a heightened response to mechanical stimuli (von Frey hair stimulation). The allodynia is quantitated in the animals receiving ddC injections by stimulation with a series of 8 Von Frey hairs on the mid planter area of the hind paws in the up-down manner described by Dixon (Dixon, 1980).
Male Sprague-Dawley rats (Charles River, Wilmington, Mass.) weighing approximately 150-300 grams were used for these studies. All experimental animals received N-(2,3-dichlorobenzyl)-4,5-dihydro-1H-imidazol-2-amine or vehicle in a single acute IP dose. In all studies, baseline measurements were taken prior to drug administration and then at 15, 30, 60 and 120 minutes post acute IP dosing (vehicle or N-(2,3-dichlorobenzyl)-4,5-dihydro-1H-imidazol-2-amine). The % allodynia reversal is calculated as: [(Postdrug threshold—Predrug threshold)/(15-Predrug threshold)]×100.
N-(2,3-dichlorobenzyl)-4,5-dihydro-1H-imidazol-2-amine was dissolved in 42% DMSO (dimethyl sulfoxide; Sigma, St. Louis, Mo.) at a concentration of 3 mg/ml. This stock solution was kept frozen at −20° C., was thawed on the day of the study and diluted in dd-H2O to concentrations ranging from 0.01-0.1 mg/ml for IP dosing (dosing volume=1 ml/kg). The vehicle is dd-H2O for these studies.
Data were compiled and analyzed using Microsoft Excel and/or Kaleidagraph. Data are expressed as mean± standard error of the mean. Comparisons between drug treated and vehicle groups were made using a two-tailed, 2-sample, unpaired t-test. Comparisons between baselines (pre-drug) and post-drug time points were made using a two-tailed, 2-sample, paired t-test.

Clc1cccc(CNC2=NCCN2)c1Cl [N-(2,3-dichlorobenzyl)-4,5-dihydro-1H-imidazol-2-amine]
Time of decrease of allodynia reversal to baseline [1]: about 120 minutes | Time of peak percent allodynia reversal [1]: 30 min | % Allodynia Reversal: 15 min post dose ([2]; 0.01 mg/kg IP, n = 6): 1.8 ± 1.6% | % Allodynia Reversal: 30 min post dose ([2]; 0.01 mg/kg IP, n = 6): 3.0 ± 1.7% | % Allodynia Reversal: 60 min post dose ([2]; 0.01 mg/kg IP, n = 6): 1.5 ± 2.0% | % Allodynia Reversal: 120 min post dose ([2]; 0.01 mg/kg IP, n = 6): 0.1 ± 1.3% | % Allodynia Reversal: 15 min post dose ([2]; 0.03 mg/kg IP, n = 6): 34 ± 3.9 % | % Allodynia Reversal: 30 min post dose ([2]; 0.03 mg/kg IP, n = 6): 67% | % Allodynia Reversal: 60 min post dose ([2]; 0.03 mg/kg IP, n = 6): 20 ± 3.7 % | % Allodynia Reversal: 120 min post dose ([2]; 0.03 mg/kg IP, n = 6): 2.0 ± 2.6% | % Allodynia Reversal: 30 min post dose ([2]; 0.03 mg/kg IP, n = 6, listed as 200762): 67 ± 9.0 % | % Allodynia Reversal: 15 min post dose ([2]; 0.1 mg/kg IP, n = 6): 58 ± 9.1 % | % Allodynia Reversal: 30 min post dose ([2]; 0.1 mg/kg IP, n = 6): 86% | % Allodynia Reversal: 60 min post dose ([2]; 0.1 mg/kg IP, n = 6): 34 ± 2.5 % | % Allodynia Reversal: 120 min post dose ([2]; 0.1 mg/kg IP, n = 6): 0.9 ± 1.2% | % Allodynia Reversal: 30 min post dose ([2]; 0.1 mg/kg IP, n = 6, listed as 200762): 86 ± 6.3 % | Minimal statistically significant efficacious dose ([2]; IP, male rats): 0.03 mg/kg | No-effect dose ([2]; IP, male rats): 0.01 mg/kg
